Laboratory results published in patent US20210214375A1 (LUNDBECK LA JOLLA RESEARCH CENTER, INC., priority 2017, published 2021).
pIC50: −log10 of the molar value. Like-named read-outs stand apart in the source and are kept apart here.

Columns and labels:
Type in all cases: biochemical
MGLL = target: T1, MGLL (Mus musculus, UniProt O35678); assay: In vitro competitive activity-based protein profiling, mouse brain proteome
T1 construct: Brain; from tissue; host or cells: mouse brain proteome
T1 sequence (O35678 1-303): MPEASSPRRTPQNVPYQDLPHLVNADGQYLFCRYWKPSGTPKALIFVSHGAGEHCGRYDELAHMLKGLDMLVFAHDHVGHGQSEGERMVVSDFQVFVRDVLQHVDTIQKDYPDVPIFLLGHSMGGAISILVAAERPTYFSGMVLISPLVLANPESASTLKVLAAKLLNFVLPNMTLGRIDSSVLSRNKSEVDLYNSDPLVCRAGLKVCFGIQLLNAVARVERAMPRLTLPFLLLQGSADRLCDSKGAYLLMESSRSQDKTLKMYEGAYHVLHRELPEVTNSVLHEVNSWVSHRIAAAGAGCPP
Procedure: [Worded in the source for another species; this species is reported under the same test.] (§1) Proteomes (human prefrontal cortex or cell membrane fractions) (50 μL, 1.0 mg/mL total protein concentration) were preincubated with varying concentrations of inhibitors at 37° C. After 30 min, FP—Rh or HT-01 (1.0 μL, 50 μM in DMSO) was added and the mixture was incubated for another 30 min at room temperature. Reactions were quenched with SDS loading buffer (15 μL-4×) and run on SDS-PAGE.

ABHD6 = target: T2, ABHD6 (Mus musculus, UniProt Q8R2Y0); assay: In vitro competitive activity-based protein profiling, mouse brain proteome, ABHD6; conditions: mouse
T2 construct: Brain; from tissue; host or cells: mouse brain proteome
T2 sequence (Q8R2Y0 1-336): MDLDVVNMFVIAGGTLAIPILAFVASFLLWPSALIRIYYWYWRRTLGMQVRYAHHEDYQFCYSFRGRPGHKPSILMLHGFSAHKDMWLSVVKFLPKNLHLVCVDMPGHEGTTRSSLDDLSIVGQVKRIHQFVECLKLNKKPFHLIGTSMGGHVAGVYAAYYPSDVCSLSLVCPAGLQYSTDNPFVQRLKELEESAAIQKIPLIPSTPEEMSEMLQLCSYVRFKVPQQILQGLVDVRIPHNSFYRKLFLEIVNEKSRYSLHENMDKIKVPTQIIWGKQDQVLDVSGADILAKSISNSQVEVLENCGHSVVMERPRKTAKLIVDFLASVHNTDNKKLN
Procedure: [Worded in the source for another target; this target is reported under the same test.] as §1

MAGL = target: T3, MAGL (Homo sapiens, UniProt Q99685); assay: In vitro competitive activity-based protein profiling (gel-based, FP-Rh or HT-01 probe)
T3 construct: Proteomes (human prefrontal cortex or cell membrane fractions); from tissue
T3 sequence (Q99685 1-303): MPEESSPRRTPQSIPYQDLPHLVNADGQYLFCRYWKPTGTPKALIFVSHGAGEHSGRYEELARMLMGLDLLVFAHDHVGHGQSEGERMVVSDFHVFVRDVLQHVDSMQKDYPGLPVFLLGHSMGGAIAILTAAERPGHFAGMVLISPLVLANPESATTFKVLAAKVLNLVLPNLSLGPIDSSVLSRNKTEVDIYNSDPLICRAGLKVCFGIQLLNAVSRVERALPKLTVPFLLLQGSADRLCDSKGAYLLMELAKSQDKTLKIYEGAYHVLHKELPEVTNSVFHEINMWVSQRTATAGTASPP
Procedure: Compounds are tested to assess their MAGL and serine hydrolase activity using the following in vitro and in vivo assays.
as §1

[1] = PFC (prefrontal cortex) proteome
[2] = PC3 proteome, read-out: IC50 MGLL PC3 (Human)

| pIC50 (MGLL) | pIC50 (ABHD6) | pIC50 (MAGL; [2]) | Structure (SMILES) | further results |
| --- | --- | --- | --- | --- |
| > 7.00 | 6.00 to 7.00 | – | O=C(OC(C(F)(F)F)C(F)(F)F)N1CCC2(CCCN2C(=O)c2ccc(Cl)cc2)CC1 [Example 13, 1,1,1,3,3,3-Hexafluoropropan-2-yl 1-(4-chlorobenzoyl)-1,8-diazaspiro[4.5]decane-8-carboxylate] | – |
| > 7.00 | 6.00 to 7.00 | – | CC(=O)N1CCCc2cccc(CN3CC4(CCN(C(=O)OC(C(F)(F)F)C(F)(F)F)CC4)C3)c21 [Example 15, 1,1,1,3,3,3-Hexafluoropropan-2-yl 2-((1-acetyl-1,2,3,4-tetrahydroquinolin-8-yl)methyl)-2,7-diazaspiro[3.5]nonane-7-carboxylate] | – |
| > 7.00 | 6.00 to 7.00 | – | CCN1CCCc2cccc(CN3CC4(CCN(C(=O)OC(C(F)(F)F)C(F)(F)F)CC4)C3)c21 [Example 16, 1,1,1,3,3,3-Hexafluoropropan-2-yl 2-((1-ethyl-1,2,3,4-tetrahydroquinolin-8-yl)methyl)-2,7-diazaspiro[3.5]nonane-7-carboxylate] | – |
| < 6.00 | 6.00 to 7.00 | – | CCN1CCCc2cccc(CN3CCC4(CC3)CN(C(=O)OC(C(F)(F)F)C(F)(F)F)C4)c21 [Example 31, 1,1,1,3,3,3-Hexafluoropropan-2-yl 7-((1-ethyl-1,2,3,4-tetrahydroquinolin-8-yl)methyl)-2,7-diazaspiro[3.5]nonane-2-carboxylate] | – |
| 6.00 to 7.00 | 6.00 to 7.00 | – | O=C(OC(C(F)(F)F)C(F)(F)F)N1CC2(CCN(Cc3c(N4CC5COCC5C4)cccc3C(F)(F)F)CC2)C1 (stereo not drawn) [Example 33] | – |
| > 7.00 | 6.00 to 7.00 | – | O=C(OC(C(F)(F)F)C(F)(F)F)N1CCC2(CC1)CN(Cc1ccc(Cl)cc1N1CCCC1)C2 [Example 34] | – |
| > 7.00 | 6.00 to 7.00 | – | O=C(OC(C(F)(F)F)C(F)(F)F)N1CCC2(CC1)CN(Cc1ccc(C(F)(F)F)cc1N1CCCCC1)C2 [Example 35] | – |
| > 7.00 | 6.00 to 7.00 | – | O=C(OC(C(F)(F)F)C(F)(F)F)N1CCC2(CC1)CN(Cc1ccc(C(F)(F)F)cc1N1CCOCC1)C2 [Example 36, 1,1,1,3,3,3-Hexafluoropropan-2-yl 2-(2-morpholino-4-(trifluoromethyl)benzyl)-2,7-diazaspiro[3.5]nonane-7-carboxylate] | – |
| 6.00 to 7.00 | 6.00 to 7.00 | – | O=C(OC(C(F)(F)F)C(F)(F)F)N1CCC2(CC1)CN(Cc1ccc(Cl)cc1N1CCCCC1)C2 [Example 38, 1,1,1,3,3,3-Hexafluoropropan-2-yl 2-(4-chloro-2-(piperidin-1-yl)benzyl)-2,7-diazaspiro[3.5]nonane-7-carboxylate] | – |
| > 7.00 | > 7.00 | – | O=C(OC(C(F)(F)F)C(F)(F)F)N1CC2(CCN(Cc3ccc(C(F)(F)F)cc3N3CCOCC3)CC2)C1 [Example 40, 1,1,1,3,3,3-Hexafluoropropan-2-yl 7-(2-morpholino-4-(trifluoromethyl)benzyl)-2,7-diazaspiro[3.5]nonane-2-carboxylate] | – |
| > 7.00 | 6.00 to 7.00 | – | O=C(OC(C(F)(F)F)C(F)(F)F)N1CCC2(CC1)CN(Cc1c(Cl)cccc1N1CCCC1)C2 [Example 42, 1,1,1,3,3,3-Hexafluoropropan-2-yl 2-(2-chloro-6-(pyrrolidin-1-yl)benzyl)-2,7-diazaspiro[3.5]nonane-7-carboxylate] | – |
| > 7.00 | 6.00 to 7.00 | – | O=C(OC(C(F)(F)F)C(F)(F)F)N1CCC2(CC1)CN(Cc1c(N3CCOCC3)cccc1C(F)(F)F)C2 [Example 43, 1,1,1,3,3,3-Hexafluoropropan-2-yl 2-(2-morpholino-6-(trifluoromethyl)benzyl)-2,7-diazaspiro[3.5]nonane-7-carboxylate] | – |
| – | – | – | CN(Cc1ccc(Cl)cc1N1CCC(C(=O)O)CC1)C1(C)CCN(C(=O)OC(C(F)(F)F)C(F)(F)F)CC1 [Example 135, 1-(5-Chloro-2-(((1-(((1,1,1,3,3,3-hexafluoropropan-2-yl)oxy)carbonyl)-4-methylpiperidin-4-yl)(methyl)amino)methyl)phenyl) piperidine-4-carboxylic acid] | % Inh MGLL PFC (Human, μM) (MAGL; [1]): ### (### is ≥ 75%) |
| – | – | > 7.00 | CN(Cc1ccc(C(F)(F)F)cc1OCC(=O)O)C1(C)CCN(C(=O)OC(C(F)(F)F)C(F)(F)F)CC1 [Example 136, 2-(2-(((1-(((1,1,1,3,3,3-Hexafluoropropan-2-yl)oxy)carbonyl)-4-methylpiperidin-4-yl)(methyl)amino)methyl)-5-(trifluoromethyl)phenoxy)acetic acid] | % Inh MGLL PFC (Human, μM) (MAGL; [1]): ### (### is ≥ 75%) |
| – | – | – | CN(Cc1cc(C(F)(F)F)cc(C2(C(=O)O)CCCC2)c1)C1(C)CCN(C(=O)OC(C(F)(F)F)C(F)(F)F)CC1 [Example 138, 1-(3-{[(1-{[(1,1,1,3,3,3-Hexafluoropropan-2-yl)oxy]carbonyl}-4-methylpiperidin-4-yl)(methyl)amino]methyl}-5-(trifluoromethyl)phenyl)cyclopentane-1-carboxylic acid] | % Inh MGLL PFC (Human, μM) (MAGL; [1]): ### (### is ≥ 75%); pIC50 (MAGL; PFC (prefrontal cortex) proteome, read-out: IC50 MGLL PFC (Human)): > 7.00 |
| – | – | > 7.00 | CC(C)(C#Cc1cc(CN2CCCC23CCN(C(=O)OC(C(F)(F)F)C(F)(F)F)CC3)cc(C(F)(F)F)c1)C(=O)O [Example 140, 4-{3-[(8-{[(1,1,1,3,3,3-Hexafluoropropan-2-yl)oxy]carbonyl}-1,8-dazaspiro[4.5]decan-1-yl)methyl]-5-(trifluoromethyl)phenyl]-2,2-dimethylbut-3-ynoic acid] | – |
| – | – | > 7.00 | CN(Cc1cccc(F)c1C1(C(=O)O)CCCC1)C1(C)CCN(C(=O)OC(C(F)(F)F)C(F)(F)F)CC1 [Example 144, 1-(2-Fluoro-6-{[(1-{[(1,1,1,3,3,3-hexafluoropropan-2-yl)oxy]carbonyl}-4-methylpiperidin-4-yl)(methyl)amino]methyl}phenyl) cyclopentane-1-carboxylic acid] | % Inh MGLL PFC (Human, μM) (MAGL; [1]): ### (### is ≥ 75%) |
| – | – | 6.00 to 7.00 | CC(C)(C#Cc1ccccc1CN1CCCC12CCN(C(=O)OC(C(F)(F)F)C(F)(F)F)CC2)C(=O)O [Example 145, 4-{2-[(8-{[(1,1,1,3,3,3-Hexafluoropropan-2-yl)oxy]carbonyl}-1,8-diazaspiro[4.5]decan-1-yl)methyl]phenyl]-2,2-dimethylbut-3-ynoic acid] | % Inh MGLL PFC (Human, μM) (MAGL; [1]): ### (### is ≥ 75%) |
| – | – | > 7.00 | CC1(OCc2ccc(Cl)cc2C2(C(=O)O)CCCC2)CCN(C(=O)OC(C(F)(F)F)C(F)(F)F)CC1 [Example 146, 1-(5-Chloro-2-{[(1-{[(1,1,1,3,3,3-hexafluoropropan-2-yl)oxy]carbonyl}-4-methylpiperidin-4-yl)oxy]methyl}phenyl) cyclopentane-1-carboxylic acid] | % Inh MGLL PFC (Human, μM) (MAGL; [1]): ### (### is ≥ 75%) |
| – | – | – | CN(Cc1ccc(C(F)(F)F)cc1N1CCC(N2CCC[C@H]2C(=O)O)CC1)C1(C)CCN(C(=O)OC(C(F)(F)F)C(F)(F)F)CC1 [Example 163, (1-(2-(((1-(((1,1,1,3,3,3-Hexafluoropropan-2-yl)oxy)carbonyl)-4-methylpiperidin-4-yl)(methyl)amino)methyl)-5-(trifluoromethyl)phenyl)piperidin-4-yl)-L-proline] | % Inh MGLL PC3 (Human, μM) (MAGL; PC3 proteome): ### (### is ≥ 75%); % Inh MGLL Brain (Mouse, μM) (MGLL): ### (### is ≥ 75%) |
| – | – | > 7.00 | O=C(O)C1CCN(c2cc(CN3CCC4(CC3)CCN(C(=O)OC(C(F)(F)F)C(F)(F)F)C4)ccc2C(F)(F)F)CC1 [Example 221] | – |
| – | – | 6.00 to 7.00 | O=C(O)C1CCN(c2cc(S(F)(F)(F)(F)F)ccc2CN2CCC3(CC2)CCN(C(=O)OC(C(F)(F)F)C(F)(F)F)C3)CC1 [Example 222, 1-(2-((2-(((1,1,1,3,3,3-Hexafluoropropan-2-yl)oxy)carbonyl)-2,8-diazaspiro[4.5]decan-8-yl)methyl)-5-(pentafluoro-l6-sulfaneyl)phenyl) piperidine-4-carboxylic acid] | – |
| – | – | > 7.00 | O=C(O)C1CCN(c2cc(CN3CCC4(CC3)CCN(C(=O)OC(C(F)(F)F)C(F)(F)F)C4)cc(S(F)(F)(F)(F)F)c2)CC1 [Example 226, 1-(3-((2-(((1,1,1,3,3,3-Hexafluoropropan-2-yl)oxy)carbonyl)-2,8-diazaspiro[4.5]decan-8-yl)methyl)-5-(pentafluoro-l6-sulfaneyl)phenyl) piperidine-4-carboxylic acid] | – |
| – | – | > 7.00 | CC1(OCc2cc(N3CCC(C(=O)O)CC3)cc(C(F)(F)F)c2)CCN(C(=O)OC(C(F)(F)F)C(F)(F)F)CC1 [Example 227] | – |
